Data reported in DBAASP.
Converted amounts (≈) assume the structure as drawn.

Key:
Assay in all cases: ≥ marks a high value that may be exact or a test limit, other limits are often not marked, values filed in µg/mL are converted to µM
Bacillus subtilis DELTA = tested on: Bacillus subtilis DELTA
Candida parapsilosis = tested on: Candida parapsilosis
[1] = tested on: Escherichia coli DH5alpha
[2] = tested on: Pseudomonas aeruginosa PAO1
[3] = tested on: Zymomonas mobilis ATCC 10988
[4] = tested on: Candida albicans ATCC 10231
[5] = tested on: Candida glabrata ATCC 2001
Candida krusei ATCC 6258 = tested on: Candida krusei ATCC 6258
[6] = tested on: Candida parapsilosis ATCC 90018
[7] = tested on: Candida tropicalis ATCC 750
[8] = tested on: Escherichia coli ATCC 25922
[9] = tested on: Pseudomonas aeruginosa ATCC 27853
[10] = tested on: Staphylococcus aureus ATCC 29213
[11] = tested on: Bacillus subtilis ATCC 6633
[12] = tested on: Candida albicans ATCC 36232
[13] = tested on: Escherichia coli KCTC 2433
[14] = tested on: Klebsiella pneumoniae ATCC 10031
[15] = tested on: Micrococcus luteus ATCC 4698
[16] = tested on: Proteus mirabilis ATCC 25933
[17] = tested on: Pseudomonas aeruginosa ATCC 9027
[18] = tested on: Shigella dysenteriae ATCC 9752
[19] = tested on: Staphylococcus aureus ATCC 25923
[20] = tested on: Staphylococcus aureus KCTC 3881
[21] = tested on: Staphylococcus epidermidis ATCC 12228
Candida albicans 820 = tested on: Candida albicans 820
Escherichia coli ML-35 = tested on: Escherichia coli ML-35
[22] = tested on: Listeria monocytogenes EGD
Aspergillus fumigatus = tested on: Aspergillus fumigatus
Bibersteinia trehalosi = tested on: Bibersteinia trehalosi
[23] = tested on: Corynebacterium pseudotuberculosis ATCC 19410
Klebsiella pneumoniae = tested on: Klebsiella pneumoniae
[24] = tested on: Mannheimia haemolytica Serovar 1
[25] = tested on: Mannheimia haemolytica Serovar 2
[26] = tested on: Mannheimia haemolytica Serovar 6
Pasteurella multocida = tested on: Pasteurella multocida
[27] = tested on: Salmonella enterica subsp. arizonae
Staphylococcus aureus = tested on: Staphylococcus aureus
Candida albicans = tested on: Candida albicans
[28] = tested on: Enterococcus faecalis ATCC 29212
Escherichia coli UB1005 = tested on: Escherichia coli UB1005
[29] = tested on: Pseudomonas aeruginosa 253
[30] = tested on: Pseudomonas aeruginosa 910
[31] = tested on: Pseudomonas aeruginosa 919
[32] = tested on: Pseudomonas aeruginosa H103
[33] = tested on: Salmonella enterica serovar Typhimurium
[34] = tested on: Staphylococcus epidermidis

Structure (SMILES): CC[C@H](C)[C@H](NC(=O)[C@H](CCCN=C(N)N)NC(=O)[C@H](CCCCN)NC(=O)[C@H](Cc1ccccc1)NC(C)=O)C(=O)N[C@H](C(=O)N[C@@H](CCC(N)=O)C(=O)N[C@H](C(=O)N[C@H](C(=O)N[C@@H](CCCCN)C(=O)N[C@@H](CCCCN)C(=O)N[C@@H](Cc1ccccc1)C(=O)N[C@@H](CC(C)C)C(=O)N[C@@H](CCCN=C(N)N)C(N)=O)[C@@H](C)CC)[C@@H](C)CC)C(C)C [FKRIVQIIKKFLR]
- MIC (Bacillus subtilis DELTA): 11.8 µM (≈ 20.5 µg/mL)
- MIC (Candida parapsilosis): 17.8 µM (≈ 30.7 µg/mL)
- MIC [1]: 29.6 µM (≈ 51.2 µg/mL)
- MIC [2]: 1.78 µM (≈ 3.07 µg/mL)
- MIC [3]: 2.96 µM (≈ 5.12 µg/mL)

Structure (SMILES): CC[C@H](C)[C@H](NC(=O)CN)C(=O)N[C@@H](CC(C)C)C(=O)N[C@@H](CC(=O)O)C(=O)N[C@H](C(=O)N[C@@H](CC(C)C)C(=O)N[C@@H](CC(N)=O)C(=O)N[C@@H](CCCCN)C(=O)N[C@H](C(=O)N[C@@H](CO)C(=O)N[C@@H](CC(N)=O)C(=O)N[C@@H](CC(C)C)C(=O)N[C@@H](Cc1ccccc1)C(N)=O)C(C)C)[C@@H](C)CC [GILDILNKVSNLF]
- MIC [4]: 31.2 µM (≈ 45.1 µg/mL)
- MIC [5]: ≥ 125 µM
- MIC (Candida krusei ATCC 6258): ≥ 62.5 µM
- MIC [6]: ≥ 125 µM
- MIC [7]: 31.2 µM (≈ 45.1 µg/mL)
- MIC [8]: 62.5 µM (≈ 90.3 µg/mL)
- MIC [9]: 31.2 µM (≈ 45.1 µg/mL)
- MIC [10]: 8 µM (≈ 11.6 µg/mL)

Structure (SMILES): CC[C@H](C)[C@@H]1NC(=O)[C@H](CCCCN)NC(=O)[C@@H](NC(=O)[C@H](CCCCN)NC(=O)[C@H](CC(C)C)NC(=O)[C@H](CCC(N)=O)NC(=O)[C@H](CCC(=O)O)NC(=O)[C@H](CC(C)C)NC(=O)[C@H](CC(C)C)NC(=O)[C@H](CO)NC(=O)CNC(=O)CNC(=O)[C@@H](NC(=O)[C@H](CC(N)=O)NC(=O)[C@H](CCCCN)NC(=O)[C@H](C)NC(=O)[C@@H](NC(=O)[C@H](CC(N)=O)NC(=O)[C@H](CCCCN)NC(=O)CNC(=O)[C@@H](NC(=O)[C@H](C)NC(=O)[C@H](CCCCN)NC(=O)[C@H](CC(C)C)NC(=O)[C@@H](NC(=O)CNC(=O)[C@@H](NC(=O)[C@@H](NC(=O)[C@@H](NC(=O)[C@H](CO)NC(=O)[C@H](Cc2ccccc2)NC(=O)[C@H](CC(C)C)NC(=O)CN)C(C)C)C(C)C)[C@@H](C)O)C(C)C)C(C)C)C(C)C)C(C)C)CSSC[C@@H](C(=O)O)NC(=O)CNC(=O)CNC(=O)[C@H](CO)NC1=O [GLFSVVTGVLKAVGKNVAKNVGGSLLEQLKCKISGGC]
- MIC [11]: 13.6 µM (≈ 50 µg/mL)
- MIC [12]: 13.6 µM (≈ 50 µg/mL)
- MIC [8]: 15 µM (≈ 55.1 µg/mL)
- MIC [13]: 16.3 µM (≈ 60 µg/mL)
- MIC [14]: 13.6 µM (≈ 50 µg/mL)
- MIC [15]: 1.7 µM (≈ 6.25 µg/mL)
- MIC [16]: 27.2 µM (≈ 99.9 µg/mL)
- MIC [17]: > 27.2 µM
- MIC [18]: 13.6 µM (≈ 50 µg/mL)
- MIC [19]: 30 µM (≈ 110 µg/mL)
- MIC [20]: 6.8 µM (≈ 25 µg/mL)
- MIC [21]: 13.6 µM (≈ 50 µg/mL)

Structure (SMILES): CC[C@H](C)[C@@H]1NC(=O)[C@@H]2CSSC[C@H](NC(=O)[C@H](Cc3ccc(O)cc3)NC(=O)[C@@H](NC(=O)[C@H](CC(C)C)NC(=O)[C@H](CCCNC(=N)N)NC(=O)CNC(=O)CNC(=O)[C@@H](N)CCCNC(=N)N)CSSC[C@@H](C(=O)N[C@H](C(N)=O)C(C)C)NC1=O)C(=O)N[C@@H](CCCNC(=N)N)C(=O)N[C@@H](CCCNC(=N)N)C(=O)N[C@@H](CCCNC(=N)N)C(=O)N[C@@H](Cc1ccccc1)C(=O)N2 [RGGRLCYCRRRFCICV]
- MIC (Candida albicans 820): 12.7 µM (≈ 24.9 µg/mL)
- MIC (Escherichia coli ML-35): 12.7 µM (≈ 24.9 µg/mL)
- MIC [22]: 12.7 µM (≈ 24.9 µg/mL)

Structure (SMILES): CC[C@H](C)[C@H](NC(=O)[C@H](CCCCN)NC(=O)[C@H](CCCN=C(N)N)NC(=O)CNC(=O)[C@H](CC(C)C)NC(=O)[C@H](C)NC(=O)[C@H](CCCN=C(N)N)NC(=O)[C@H](CC(C)C)NC(=O)CNC(=O)[C@@H](N)CCCN=C(N)N)C(=O)N[C@@H](C)C(=O)N[C@@H](Cc1cnc[nH]1)C(=O)NCC(=O)N[C@H](C(=O)N[C@@H](CCCCN)C(=O)N[C@@H](C)C(=O)N[C@@H](Cc1ccc(O)cc1)C(=O)NCC(=O)O)C(C)C [RGLRALGRKIAHGVKAYG]
- MIC (Aspergillus fumigatus): 20.8 µM (≈ 40 µg/mL)
- MIC (Bibersteinia trehalosi): 10.4 µM (≈ 20 µg/mL)
- MIC [23]: 10.4 µM (≈ 20 µg/mL)
- MIC (Klebsiella pneumoniae): > 10.4 µM
- MIC [24]: 5.2 µM (≈ 10 µg/mL)
- MIC [25]: 4.32 µM (≈ 8.3 µg/mL)
- MIC [26]: 10.4 µM (≈ 20 µg/mL)
- MIC (Pasteurella multocida): 10.4 µM (≈ 20 µg/mL)
- MIC [2]: 5.2 µM (≈ 10 µg/mL)
- MIC [27]: 10.4 µM (≈ 20 µg/mL)
- MIC (Staphylococcus aureus): > 10.4 µM

Structure (SMILES): CC[C@H](C)[C@H](NC(=O)[C@H](CCCN=C(N)N)NC(=O)[C@H](C)NC(=O)[C@H](CC(C)C)NC(=O)[C@@H](N)CCCN=C(N)N)C(=O)N[C@H](C(=O)N[C@H](C(=O)N[C@H](C(=O)N[C@@H](CCCN=C(N)N)C(=O)N[C@H](C(=O)N[C@@H](CCCN=C(N)N)C(=O)N[C@@H](CCCN=C(N)N)C(N)=O)C(C)C)[C@@H](C)CC)C(C)C)C(C)C [RLARIVVIRVRR]
- MIC (Candida albicans): 5.31 µM (≈ 8 µg/mL)
- MIC [28]: 5.31 µM (≈ 8 µg/mL)
- MIC (Escherichia coli UB1005): 5.31 µM (≈ 8 µg/mL)
- MIC [29]: ≥ 64 µM
- MIC [30]: ≥ 64 µM
- MIC [31]: ≥ 32 µM
- MIC [32]: 10.6 µM (≈ 16 µg/mL)
- MIC [2]: 16 µM (≈ 24.1 µg/mL)
- MIC [33]: 5.31 µM (≈ 8 µg/mL)
- MIC [19]: 5.31 µM (≈ 8 µg/mL)
- MIC [34]: 1.33 µM (≈ 2 µg/mL)
